Source: patent US11366116B1, “Real time autonomous surveillance of pathogens” (priority 2017, dated 2022)

Tested on: Culex tarsalis mosquitoes
Assay: Observation of mosquitoes feeding upon scented, spun (cotton candy) baits
Format: in vivo
Conditions: for Number of mosquitos observed feeding each scent: scented spun cotton candy bait
Text: One strategy for a solid bait that we tested was a “cotton candy” or spun sugar bait (FIG. 11). The cotton candy could be pressed into the feeding well, over and on top of a dried enzyme pellet and a ball bearing for magnetic mixing. We anticipated this would allow a large surface area for mosquitoes to feed, as well as dissolve instantly upon adding a drop of rehydration buffer. Plain cotton candy made from pure sucrose turned out to be unstable upon storage for more than a few days, and we subsequently devised a way to modify the cotton candy by melting a polymer (PEG) with the sugar prior to spinning, to stabilize it against shriveling in ambient humidity. […] Based on this experiment (Table 1), we determined that both honey and plumeria could be used as attractants for sugar-feeding Culex tarsalis mosquitoes.

## O=CCc1ccccc1 [Phenylacetaldehyde]
Day 0
  Number of mosquitos observed feeding each scent: 0
Day 1
  Number of mosquitos observed feeding each scent: 5
Day 2
  Number of mosquitos observed feeding each scent: 1
Day 3
  Number of mosquitos observed feeding each scent: 4
Day 4
  Number of mosquitos observed feeding each scent: 3
Sum of Day 0 to Day 4
  Number of mosquitos observed feeding each scent, Sum: 13
